Measured values reported in patent EP0430045B1, “Ascorbic acid tocopheryl phosphate diesters for inhibition of Maillard's reaction” (Senju Pharmaceutical Co., Ltd., priority 1989, dated 1991).

Biological target: T1, bovine serum albumine (Bos taurus, UniProt P02769)
T1 construct: purchased Sigma A-8022
Experiment: Inhibition of furosine formation (non-enzymatic glycosylation of BSA by glucose, Maillard's reaction), furosine determined by HPLC
Format: biochemical
Settings: inhibition rate of furosine formation; 5 mM test compound, 20 mg/ml BSA, 50 mM glucose, 50 mM phosphate buffer pH 7.3, 4 weeks at 37 °C
Procedure: Sample solutions as shown below were aseptically prepared from bovine serum albumine (No. A-8022, Sigma)(hereinafter referred to as BSA), 50 mM phosphate buffer solution (PH 7.3) and the test compound and aminoguanidine.
Normal sample; 20 mg/ml BSA in buffer solution Control sample: 20 mg/ml BSA and 50 mM glucose in buffer solution Test sample; 20 mg/ml BSA, 50 mM glucose and 5 mM test compound in buffer solution The sample solutions were kept for 4 weeks at 37 °C, and the amount of furosine which was formed by non-enzymatic glycosylation was determined by HPLC according to the method of Schleicher et al. [J. Clin. Biochem., 19:81-87 (1981).] Thus, the sample solutions after reaction were dialyzed, and aliquots of 1 ml were lyophylized and then hydrolyzed by the addition of 1 ml of 6 N hydrochloric acid followed by heating at 100 °C for 20 hours. After removal of hydrochloric acid by evaporation, 1 ml of water was added to each sample, and the samples were subjected to filtration using a filter with the pore size of 0.45 »m. The filtrate was used as the sample for HPLC. […] The absorbance peak whose ratio of peak area at […] was 3.9/1 was regarded as the peak corresponding to furosine.
Upon the area of the peak of furosine of each sample, the inhibition rate of furosine formation by the test compound was calculated as follows. […]

T1 sequence (P02769 25-607): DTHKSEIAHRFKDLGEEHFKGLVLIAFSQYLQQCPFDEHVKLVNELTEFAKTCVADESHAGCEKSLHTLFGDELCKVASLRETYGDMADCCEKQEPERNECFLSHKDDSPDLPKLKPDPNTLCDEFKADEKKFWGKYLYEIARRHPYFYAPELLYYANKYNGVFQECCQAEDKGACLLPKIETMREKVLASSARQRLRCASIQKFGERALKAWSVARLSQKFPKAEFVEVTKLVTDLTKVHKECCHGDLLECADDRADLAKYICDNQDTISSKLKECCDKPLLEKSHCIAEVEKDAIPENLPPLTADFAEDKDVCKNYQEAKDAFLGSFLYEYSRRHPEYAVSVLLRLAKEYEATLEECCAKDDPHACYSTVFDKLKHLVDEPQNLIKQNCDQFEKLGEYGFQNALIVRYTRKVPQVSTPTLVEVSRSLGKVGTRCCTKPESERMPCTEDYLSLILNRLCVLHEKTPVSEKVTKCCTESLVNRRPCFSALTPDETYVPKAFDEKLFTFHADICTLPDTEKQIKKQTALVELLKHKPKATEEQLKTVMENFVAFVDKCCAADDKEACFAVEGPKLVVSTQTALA

## N=C(N)NN [Aminoguanidine]
  inhibition at 5000 µM: 7.5%
